Source: patent US12679835B2, “Benzothiazinone derivative substituted with trifluoromethyl at 6-position, and preparation method therefor and use thereof” (SOOCHOW UNIVERSITY, priority 2021, dated 2026)
In brackets after ≈: the same amount, converted by molar mass.

Legend:
in vitro = conditions: human, microsomes, pH 7.4
[1] = test system: Mycobacterium tuberculosis (H37 Rv, standard tuberculosis strain); assay: Anti-Mycobacterium tuberculosis activity, microwell Alamar Blue fluorometric method (MIC); format: cell-based; conditions: Mycobacterium tuberculosis H37Rv, 37° C., 8 days + 2 days, read-out: MIC (minimal inhibitory concentration)
physchem = conditions: pH 7.4, aqueous buffer, kinetic from dmso stock
Tuberculosis = conditions: background statement, existing clinical first-line drug; cited from earlier work

| SMILES | half-life at 1 μM (in vitro) [min] | MIC [1] [µg/mL] | solubility at 4 h (physchem) [µg/mL] | MIC (Tuberculosis) [µM] |
| --- | --- | --- | --- | --- |
| CN(Cc1nnc(-c2ccc(F)cc2)s1)c1nc(=O)c2cc(C(F)(F)F)cc([N+](=O)[O-])c2s1 [Example 4] | 34.3 | 0.016 | – | – |
| CN(Cc1cn(-c2ccccc2)nn1)c1nc(=O)c2cc(C(F)(F)F)cc([N+](=O)[O-])c2s1 [Example 2, 2-(1-phenyl ((1-1H-1,2,3-triazole-4-yl)methyl) (methyl)amino)-8-nitro-6-(trifluoromethyl)-4H-benzo [e] [1,3] Thiazin-4-ketone] | 100 | 0.004 | 0.13 (≈ 0.281 µM) | – |
| CN(Cc1coc(-c2ccccc2)n1)c1nc(=O)c2cc(C(F)(F)F)cc([N+](=O)[O-])c2s1 [Example 5, 2-(methyl((2-phenyloxazole-4-yl)methyl)amino)-8-nitro-6-(trifluoromethyl)-4H-benzo [e] [1,3] Thiazin-4-ketone] | 33.6 | 0.003 | 0.11 (≈ 0.238 µM) | – |
| CN(Cc1nnc(-c2ccc(F)cc2)s1)c1nc(=O)c2cc(S(C)(=O)=O)cc([N+](=O)[O-])c2s1 [Control 4] | 13.2 | 0.024 | – | – |
| CN(Cc1cn(-c2ccccc2)nn1)c1nc(=O)c2cc(S(C)(=O)=O)cc([N+](=O)[O-])c2s1 [Control 2] | 53.7 | 0.022 | – | – |
| CN(Cc1cn(-c2ccc(F)cc2)nn1)c1nc(=O)c2cc(S(C)(=O)=O)cc([N+](=O)[O-])c2s1 [Control 3] | 27.6 | 0.015 | – | – |
| NNC(=O)c1ccncc1 [isoniazid INH, isoniazid] | – | 0.028 | – | 0.5 (≈ 0.0686 µg/mL) |
| CN(Cc1cn(-c2ccc(F)cc2)nn1)c1nc(=O)c2cc(C(F)(F)F)cc([N+](=O)[O-])c2s1 [Example 3] | 116 | 0.004 | 0.12 (≈ 0.25 µM) | – |
| CN(Cc1coc(-c2ccccc2)n1)c1nc(=O)c2cc(S(C)(=O)=O)cc([N+](=O)[O-])c2s1 [Control 5] | 21 | 0.015 | – | – |
| CN(Cc1nnc(-c2ccccc2)o1)c1nc(=O)c2cc(C(F)(F)F)cc([N+](=O)[O-])c2s1 [Example 1, 2-(methyl ((5-phenyl-1,3,4-oxadiazol-2-yl)methyl)amino)-8-nitro-6-(trifluoromethyl)-4H-benzo [e] [1,3] Thiazin-4-ketone] | 68.2 | 0.003 | 0.15 (≈ 0.324 µM) | – |
| O=c1nc(N2CCN(CC3CCCCC3)CC2)sc2c([N+](=O)[O-])cc(C(F)(F)F)cc12 [PBTZ169] | 38 | 0.00183 | < 0.01 | – |
| CN(Cc1nnc(-c2ccccc2)o1)c1nc(=O)c2cc(S(C)(=O)=O)cc([N+](=O)[O-])c2s1 [Control 1] | 45.9 | 0.014 | – | – |
